Entries after “also recorded” stand apart in the source; their conditions may differ. Where two headings read alike, the source gives them in different places.
Tests used:
FTase [1] = molecular target: T1, FTase (Homo sapiens, UniProt P49356); assay: FTase activity assay: transfer of [3H]farnesyl from FPP to recombinant H-Ras-CVLS, Daudi 60,000xg supernatant; type: biochemical
T1 construct: FTase and GGTase I activities from 60,000×g supernatants of human Burkitt lymphoma (Daudi) cells; endogenous in cells; host or cells: human Burkitt lymphoma (Daudi) cells, 60,000xg supernatant (partially purified)
T1 sequence (P49356 whole entry): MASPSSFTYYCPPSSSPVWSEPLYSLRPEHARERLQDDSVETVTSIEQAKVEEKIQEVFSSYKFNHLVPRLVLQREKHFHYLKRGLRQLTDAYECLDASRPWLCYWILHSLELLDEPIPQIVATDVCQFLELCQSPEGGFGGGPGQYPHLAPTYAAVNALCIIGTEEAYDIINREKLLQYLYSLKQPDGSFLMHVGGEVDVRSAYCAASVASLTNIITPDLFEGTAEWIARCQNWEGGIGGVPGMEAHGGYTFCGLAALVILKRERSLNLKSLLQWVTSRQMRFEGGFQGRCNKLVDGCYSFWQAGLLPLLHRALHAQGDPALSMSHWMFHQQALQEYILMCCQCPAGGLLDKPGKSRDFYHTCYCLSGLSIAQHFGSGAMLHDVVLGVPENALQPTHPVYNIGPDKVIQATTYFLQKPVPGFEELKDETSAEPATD
Method: FTase and GGTase I activities from 60,000×g supernatants of human Burkitt lymphoma (Daudi) cells (ATCC, Rockville, Md., USA) were assayed as described previously for FTase (41). Briefly, 100 μg of the supernatant was incubated in 50 mM Tris, pH 7.5, 50 μM ZnCl2, 20 mM KCl and 1 mM dithiothreitol (DTT).
Human Burkitt lymphoma (Daudi) cells (ATCC, Rockville, Md.) were grown in suspension in RPMI 1640 medium containing 10% fetal bovine serum (FBS) and 1% Pen-Strep in a humidified 10% CO2 incubator at 37° C. The cells were harvested and sonicated in 50 mM Tris, pH 7.5, 1 mM EDTA, 1 mM EGTA, 25 μg/ml leupeptin, 1 mM phenylmethylsulfonyl fluoride. Homogenates were then spun at 12,000×g and the resulting supernatant further spun at 60,000×g. The supernatant was assayed for both FTase and GGTase I. Briefly, 100 μg of the supernatants was incubated in 50 mM Tris, pH 7.5, 50 μM ZnCl2, 20 mM KCl, 3 mM MgCl2 and 1 mM DTT. […] FPP (625 nM; 16.3 Ci/mmol). For GGTase assays, the reaction was also incubated for 30 minutes at 37° C. but with recombinant H-Ras-CVLL (5 μM) and [^3 H] GGPP (525 nM; 19.0 Ci/mmol). The reaction was stopped and passed through glass fiber filters to separate free and incorporated label. For inhibition studies, the peptidomimetics were premixed with FTase or GGTase I prior to adding the remainder of the reaction mixture. […] Recombinant H-Ras-CVLL was prepared from bacteria (32).
FTase and GGTase I activities from 60,000×g supernatants of human Burkitt lymphoma (Daudi) cells (ATCC, Rockville, Md.) were assayed exactly as described previously for FTase (41).

GGTase I = molecular target: T2, GGTase I (Homo sapiens, UniProt P53609); assay: GGTase I activity assay: transfer of [3H]geranylgeranyl to recombinant H-Ras-CVLL, Daudi 60,000xg supernatant; type: biochemical
T2 construct: FTase and GGTase I activities from 60,000×g supernatants of human Burkitt lymphoma (Daudi) cells; endogenous in cells; host or cells: human Burkitt lymphoma (Daudi) cells, 60,000xg supernatant (partially purified)
T2 sequence (P53609 whole entry): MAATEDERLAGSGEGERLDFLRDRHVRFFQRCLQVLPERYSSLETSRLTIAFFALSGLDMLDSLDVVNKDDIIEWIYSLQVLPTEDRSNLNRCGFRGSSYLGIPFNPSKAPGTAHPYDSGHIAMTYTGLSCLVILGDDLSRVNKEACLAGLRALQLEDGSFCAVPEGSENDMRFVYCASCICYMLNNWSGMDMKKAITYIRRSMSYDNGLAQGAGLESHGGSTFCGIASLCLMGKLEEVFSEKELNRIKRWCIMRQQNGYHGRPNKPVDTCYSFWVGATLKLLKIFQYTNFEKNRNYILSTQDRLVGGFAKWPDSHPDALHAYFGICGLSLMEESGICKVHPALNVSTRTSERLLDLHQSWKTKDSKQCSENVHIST

rat brain FTase = molecular target: T3, rat brain FTase (Rattus norvegicus, UniProt Q02293); assay: Inhibition of rat brain FTase purified to homogeneity; type: biochemical
T3 construct: 50 nM towards rat brain FTase purified to homogeneity; from tissue; host or cells: rat brain

FTase [2] = molecular target: T1, FTase; assay: Peptidomimetics farnesylation assay (silica gel TLC); type: biochemical
Method: The ability of human Burkitt lymphoma (Daudi) FTase to farnesylate peptides and peptidomimetics was determined as described previously (34, 35). Briefly, 25 μl of reaction mixture containing 50 μg of 60,000×g supernatants and 20 μM peptidomimetic in 50 mM Tris, pH 7.5, 50 μM ZnCl2, 20 mM KCl, 3 mM MgCl2, 1 mM DTT and 0.2% octylβ-D-glucoside was incubated for 30 minutes at 37° C., then spotted onto silica gel G TLC sheets (20×20 cm, Brinkmann Instruments), and developed with n-propanol/5 N ammonium hydroxide/water (6:1:1). The dried sheets were sprayed with En^3 Hance (DuPont NEN) and exposed to x-ray film for detection of [^3 H] farnesylated products.

Ras processing = Ras processing assay in EJ3 / Ras transformed 3T3 cells (FIG. 16A); type: cell-based
Method: EJ3 cells were treated with peptidomimetics or vehicle for 20-24 h. Cells were lysed in lysis buffer (10 mM Na2 HPO4, pH 7.25, 150 mM NaCl, 0.1% sodium dodecyl sulfate, 1% Triton X-100, 12 mM sodium deoxycholate, 1 mM NaF, 0.2% NaN3, 2 mM PMSF, 25 μg/ml leupeptin) and the lysates were cleared by spinning at 13,000 rpm for 15 minutes. Ras protein was immunoprecipitated overnight at 4° C. with 50 μg of anti-Ras antibody (Y13-259; hybridoma from ATCC, Rockville, Md.) along with 30 μl Protein A-agarose goat anti-rat IgG complex (oncogene Science, Uniondale, N.Y.). Immunoprecipitates were washed 4 times with lysis buffer and the bound proteins were released by heating for 5 minutes in 40 μl SDS-PAGE sample buffer and subsequently electrophoresed on a 12.5% SDS-PAGE.

Rap1A processing = Rap1A processing assay in EJ3 / Ras transformed 3T3 cells (FIG. 16B); type: cell-based
Method: For Rap1A processing assays, 50 μg of cell lysates were electrophoresed as described above for Ras processing and transferred to nitrocellulose. These membranes were then blocked with 5% milk in Tris-buffered saline, pH 8.0, containing 0.5% Tween-20 and probed with anti-Rap1A (1 μg/ml in 5% milk/TBS-T; Santa Cruz Biotechnology, Santa Cruz, Calif.). Antibody reactions were visualized using peroxidase-conjugated goat anti-rabbit IgG (Oncogene) and ECL chemiluminescence as described above.

FTase [3] = conditions: published; cited from earlier work

Molecule	selectivity for FTase over GGTase I (FTase [1]) [fold]	Selectivity (FTase [1]; Table 4, FTase over GGTase I)	IC50 (FTase [1]; Table 4, read-out: FTase IC50) [nM]	IC50 (GGTase I; Table 4, read-out: GGTase-I IC50) [nM]	IC50 (GGTase I; read-out: GGTase I IC50) [nM]	IC50 (rat brain FTase) [nM]	farnesylation by FTase (FTase [2]; FIG. 15, listed as 4)	Substrate (FTase [2]; Table 4, substrate for farnesylation, TLC)	lowest concentration that inhibited Ras processing (Ras processing) [µM]	inhibition of Ras processing (Ras processing; 100 μM)	inhibition of Rap1A processing (Rap1A processing)	IC50 (FTase [3]) [nM]
N[C@@H](CS)CNc1ccc(-c2cccc(C(=O)O)c2)cc1 [FTI-265, 4-N-[2(R)-amino-3-mercaptopropyl]amino-3'-carboxybiphenyl]	877	877	114	100000	100000	50	prevented farnesylation; also recorded: not substrates for farnesylation	no	50	potently inhibit Ras processing	not able to inhibit Rap1A geranylgeranylation	
Cys-Ile-Phe-Met (CIFM; printed: Cys-Ile-Phe-Met)												30

Reference: patent US5965539A, “Inhibitors of prenyl transferases” (Univeristy of Pittsburgh, priority 1996, dated 1999)
